System: H4-II-E/CDDP cells
Assay: Cell proliferation inhibitory effects after treating for 7 days, WST-1 assay; resistance of H4-II-E/CDDP cells in comparison with H4-II-E cells
Format: cell-based, rat
Settings: for resistance of H4-II-E/CDDP cells to the drug: H4-II-E/CDDP cells vs H4-II-E cells
Procedure: Rat hepatic cancer H4-II-E was obtained from Dainippon Pharmaceutical Co., Ltd. The H4-II-E cells were cultured in MEM medium, during which the concentration of CDDP was increased stepwise from 0.1 μg/ml to 1.0 μg/ml over a period of about one year, by which method, the CDDP resistant cell line (H4-II-E/CDDP) was prepared. The cells used in the experiment were those obtained by subculturing in a CDDP-containing MEM medium (CDDP 1.0 μg/ml) in vitro.
The cell proliferation inhibitory effects of cisplatin to H4-II-E cells and H4-II-E/CDDP cells after treating for 7 days were evaluated by WST-1 assay.

Structure (SMILES)	resistance of H4-II-E/CDDP cells in comparison with H4-II-E cells (7 days treatment, WST-1 assay)	resistance of H4-II-E/CDDP cells to the drug
N.N.[Cl][Pt][Cl] [cisplatin, Cisplatin]	about 10 folds	
COc1cc([C@@H]2c3cc4c(cc3[C@@H](O[C@@H]3O[C@@H]5CO[C@@H](C)O[C@H]5[C@H](O)[C@H]3O)[C@H]3COC(=O)[C@H]23)OCO4)cc(OC)c1O [etoposide]		did not show any resistance
COc1cccc2c1C(=O)c1c(O)c3c(c(O)c1C2=O)C[C@@](O)(C(=O)CO)C[C@@H]3O[C@H]1C[C@H](N)[C@H](O)[C@H](C)O1 [doxorubicin]		did not show any resistance

Reference: patent US7459482B2, “Agent for treatment of cisplatin-resistant cancer” (Dainippon Sumitomo Pharma Co., Ltd., priority 2000, dated 2008)
